Columns and labels:
[1] = tested on: S. aureus (MRSA); test: β-D-ribosidase substrates in Columbia agar, colored or fluorescent colonies; type: cell-based, Staphylococcus aureus
Protocol: (§1) The media hereinafter were prepared in 200 ml of a Columbia agar base (Oxoid), in combination with the chromogenic β-D-ribosidase substrates. The various substrates and also the concentrations and the additives used in the media are described in Table 1 below:
(§2) The β-D-ribosidase substrates are solubilized in DMSO and added to the media so as to obtain the concentrations indicated in Table 1.
(§3) 191 bacterial strains were inoculated onto each of the media using a suspension at 0.5 MacFarland diluted to 1/1000. The dishes were incubated at 37° C. and then read.
(§4) The media were distributed into Petri dishes, then inoculated with approximately 100 000 CFU, then incubated at 37° C. for 48 h. The colonies formed were examined visually after incubation times of 18, 24 and 48 hours.
(§5) The stock collection of 191 strains comprised: […], 48 Staphylococcus spp, 61 Enterococcus spp and 3 alpha-hemolytic Streptococcus.

[2] = tested on: S. aureus (MSSA); test: as above; type: cell-based, Staphylococcus aureus
Protocol: as §1, §2, §3, §4, §5

[3] = tested on: S. aureus (MRSA and MSSA); test: Catechol-β-D-riboside in a liquid medium, coloration; type: cell-based, Staphylococcus aureus
Protocol: (§6) The medium hereinafter had the same composition as a chromID S. aureus base (bioMérieux), with no selective agents nor agar, so as to obtain a liquid medium. The substrates and inducers were replaced, before autoclaving, with […] of catechol-β-D-riboside, solubilized in DMSO, and with ammoniacal iron citrate at 500 mg/l. The medium was then distributed into tubes in a proportion of 1.5 ml/tube.
For this medium, the inoculation was carried out using precultures prepared for 24 h at 37° C. A suspension of physiological saline at 0.5 McF was prepared and then each tube was inoculated with 10 μl of bacterial suspension. […]
(§7) In total, 11 staphylococcus strains were tested; 5 S. aureus and 6 of other species of the Staphylococcus genus (coagulase-negative).

[4] = tested on: Coag neg; test: Catechol-β-D-riboside and X-β-D-riboside on a broad panel of Staphylococcus spp; type: cell-based
Protocol: (§8) Catechol-β-D-riboside: A GTS medium (bioMérieux) supplemented with 300 mg/l of catechol-β-D-riboside, then autoclaved, and with 500 mg/l of ammoniacal iron citrate was used and distributed into Petri dishes 55 mm in diameter.
(§9) X-β-D-riboside: A modified Chapman medium, without NaCl, autoclaved and supplemented with 60 mg/l of X-β-D-riboside, was used and distributed into Petri dishes 55 mm in diameter.
For the two media, the inoculation was carried out using precultures prepared for 24 h at 37° C. A suspension in physiological saline at 0.5 McF was prepared and then each strain was inoculated onto a dish using a 10 μl calibrated loop.
(§10) The readings were carried out after 24 and 48 hours of incubation at 37° C.
(§11) In total, […] were tested: 34 S. aureus, including 25 MRSAs, and 46 other species of Staphylococcus (including S. schleiferi; S. capitis; S. hyicus; S. intermedius; S. haemolyticus; S. auricularis; S. hominis; S. warneri; S. chromogenes; S. cohnii; S. epidermidis; S. sciuri; S. xylosus; S. saprophyticus).

[5] = tested on: Alpha-hemolytic streptococci; test: β-D-ribosidase substrates in Columbia agar, colored or fluorescent colonies; type: cell-based, alpha-hemolytic Streptococcus
Protocol: as §1, §2, §3, §4, §5

[6] = tested on: S aureus (MRSA and MSSA); test: Catechol-β-D-riboside and X-β-D-riboside on a broad panel of Staphylococcus spp; type: cell-based
Protocol: as §8, §9
For the two media, the inoculation was carried out using precultures prepared for 24 h at 37° C. A suspension in physiological saline at 0.5 McF was prepared and then each strain was inoculated onto a dish using a 10 μl calibrated loop. […]
as §11

[7] = tested on: Micrococcus luteus; test: β-D-ribosidase substrates in Columbia agar, colored or fluorescent colonies; type: cell-based
Protocol: [The procedure below names another organism; the source lists this organism under the same test.] as §1, §2, §3, §4, §5

[8] = tested on: Coagulase-negative; test: Catechol-β-D-riboside in a liquid medium, coloration; type: cell-based
Protocol: as §6
For this medium, the inoculation was carried out using precultures prepared for 24 h at 37° C. A suspension of physiological saline at 0.5 McF was prepared and then each tube was inoculated with 10 μl of bacterial suspension.
as §10, §7

[9] = tested on: Enterococci; test: β-D-ribosidase substrates in Columbia agar, colored or fluorescent colonies; type: cell-based, Enterococcus spp
Protocol: as §1, §2, §3, §4, §5

[10] = tested on: Coagulase-negative Staphylococci; test: as above; type: cell-based, Staphylococcus spp; details: for % of strains producing colored or fluorescent colonies: Coagulase-negative Staphylococci
Protocol: as §1, §2, §3, §4, §5

[11] = 400 mg/L + ammoniacal iron citrate 100 mg/l, 18 h
[12] = 400 mg/L + ammoniacal iron citrate 100 mg/l, 24 h
[13] = 400 mg/L + ammoniacal iron citrate 100 mg/l, 48 h
[14] = GTS medium, 300 mg/l substrate, 500 mg/l ammoniacal iron citrate
[15] = modified Chapman medium without NaCl, 60 mg/l substrate

Question: How did the “% of strains producing colored or fluorescent colonies” value [1, 11] turn out when `OC[C@H]1O[C@@H](Oc2ccccc2O)[C@H](O)[C@@H]1O` [Catechol-β-riboside, 2-Hydroxyphenyl-beta-D-riboside] was run?
Answer: Its value is 100%.

Question: And the “% of strains producing colored or fluorescent colonies” value [1, 12]?
Answer: Its value is 100%.

Question: And the “% of strains producing colored or fluorescent colonies” value [1, 13]?
Answer: The value was 100%.

Question: What about the “% of strains producing colored or fluorescent colonies” value [2, 11] of the same molecule?
Answer: Its value is 100%.

Question: And the “% of strains producing colored or fluorescent colonies” value [2, 12]?
Answer: The value was 100%.

Question: What about the “% of strains producing colored or fluorescent colonies” value [2, 13] of the same molecule?
Answer: The value was 100%.

Question: What about the “Number of strains producing a coloration, Positive at 18 h” value ([3]; 300 ml/g catechol-β-D-riboside, ammoniacal iron citrate 500 mg/l, S. aureus, 18 h) of the same molecule?
Answer: Its value is 5/5.

Question: What about the “Number of strains producing a coloration, Positive at 24 h” value ([3]; 300 ml/g catechol-β-D-riboside, ammoniacal iron citrate 500 mg/l, S. aureus, 24 h) of the same molecule?
Answer: The value was 5/5.

Question: What about the “Number of strains producing a coloration, Positive at 48 h” value ([3]; 300 ml/g catechol-β-D-riboside, ammoniacal iron citrate 500 mg/l, S. aureus, 48 h) of the same molecule?
Answer: The value was 5/5.

Question: What about the “coloration for S. aureus” value ([3]; from 18 hours onward) of the same molecule?
Answer: The value was 100%.

Question: What about the “Number of strains producing a coloration/total number of strains, positive at 18 h” value [4, 14] of the same molecule?
Answer: The value was 10/46.

Question: What about the “Number of strains producing a coloration/total number of strains, positive at 24 h” value [4, 14] of the same molecule?
Answer: The value was 14/46.

Question: And the “Number of strains producing a coloration/total number of strains, positive at 48 h” value [4, 14]?
Answer: Its value is 14/46.

Question: And the “% of strains producing colored or fluorescent colonies” value [5, 11]?
Answer: Its value is 0%.

Question: What about the “% of strains producing colored or fluorescent colonies” value [5, 12] of the same molecule?
Answer: Its value is 0%.

Question: What about the “% of strains producing colored or fluorescent colonies” value [5, 13] of the same molecule?
Answer: The value was 0%.

Question: And the “Number of strains producing a coloration/total number of strains, positive at 18 h” value [6, 14]?
Answer: Its value is 19/34.

Question: And the “Number of strains producing a coloration/total number of strains, positive at 24 h” value [6, 14]?
Answer: Its value is 31/34.

Question: What about the “Number of strains producing a coloration/total number of strains, positive at 48 h” value [6, 14] of the same molecule?
Answer: Its value is 34/34.

Question: What about the “% of strains producing colored or fluorescent colonies” value [7, 11] of the same molecule?
Answer: The value was 0%.

Question: And the “% of strains producing colored or fluorescent colonies” value [7, 12]?
Answer: Its value is 0%.

Question: What about the “% of strains producing colored or fluorescent colonies” value [7, 13] of the same molecule?
Answer: Its value is 0%.

Question: And the “Number of strains producing a coloration, Positive at 18 h” value ([8]; 300 ml/g catechol-β-D-riboside, ammoniacal iron citrate 500 mg/l, coagulase-negative, 18 h)?
Answer: Its value is 0/6.

Question: And the “Number of strains producing a coloration, Positive at 24 h” value ([8]; 300 ml/g catechol-β-D-riboside, ammoniacal iron citrate 500 mg/l, coagulase-negative, 24 h)?
Answer: The value was 0/6.

Question: What about the “Number of strains producing a coloration, Positive at 48 h” value ([8]; 300 ml/g catechol-β-D-riboside, ammoniacal iron citrate 500 mg/l, coagulase-negative, 48 h) of the same molecule?
Answer: Its value is 1/6.

Question: What about the “detection of the other species of the Staphylococcus genus” value ([8]; from 18 hours onward) of the same molecule?
Answer: The value was “none of the other species of the Staphylococcus genus were detected”.

Question: And the “% of strains producing colored or fluorescent colonies” value [9, 11]?
Answer: Its value is 2%.

Question: What about the “% of strains producing colored or fluorescent colonies” value [9, 12] of the same molecule?
Answer: Its value is 2%.

Question: What about the “% of strains producing colored or fluorescent colonies” value [9, 13] of the same molecule?
Answer: The value was 2%.

Question: And the “% of strains producing colored or fluorescent colonies” value [10, 11]?
Answer: Its value is 3%.

Question: What about the “% of strains producing colored or fluorescent colonies” value [10, 12] of the same molecule?
Answer: The value was 3%.

Question: And the “% of strains producing colored or fluorescent colonies” value [10, 13]?
Answer: The value was 3%.

Question: What does the source list for “5-Bromo-4-chloro-3-indoxyl-beta-D-riboside [X-β-riboside]”?
Answer: % of strains producing colored or fluorescent colonies ([1]; 80 mg/L, 18 h): 84%; % of strains producing colored or fluorescent colonies ([1]; 80 mg/L, 24 h): 92%; % of strains producing colored or fluorescent colonies ([1]; 80 mg/L, 48 h): 97%; % of strains producing colored or fluorescent colonies ([1]; 200 mg/L, 18 h): 82%; % of strains producing colored or fluorescent colonies ([1]; 200 mg/L, 24 h): 87%; % of strains producing colored or fluorescent colonies ([1]; 200 mg/L, 48 h): 95%; % of strains producing colored or fluorescent colonies ([2]; 80 mg/L, 18 h): 64%; % of strains producing colored or fluorescent colonies ([2]; 80 mg/L, 24 h): 100%; % of strains producing colored or fluorescent colonies ([2]; 80 mg/L, 48 h): 100%; % of strains producing colored or fluorescent colonies ([2]; 200 mg/L, 18 h): 64%; % of strains producing colored or fluorescent colonies ([2]; 200 mg/L, 24 h): 64%; % of strains producing colored or fluorescent colonies ([2]; 200 mg/L, 48 h): 100%; Number of strains producing a coloration/total number of strains, positive at 18 h [4, 15]: 7/46; Number of strains producing a coloration/total number of strains, positive at 24 h [4, 15]: 12/46; Number of strains producing a coloration/total number of strains, positive at 48 h [4, 15]: 14/46; % of strains producing colored or fluorescent colonies ([5]; 80 mg/L, 18 h): 0%; % of strains producing colored or fluorescent colonies ([5]; 80 mg/L, 24 h): 0%; % of strains producing colored or fluorescent colonies ([5]; 80 mg/L, 48 h): 0%; % of strains producing colored or fluorescent colonies ([5]; 200 mg/L, 18 h): 0%; % of strains producing colored or fluorescent colonies ([5]; 200 mg/L, 24 h): 0%; % of strains producing colored or fluorescent colonies ([5]; 200 mg/L, 48 h): 0%; Number of strains producing a coloration/total number of strains, positive at 18 h [6, 15]: 17/34; Number of strains producing a coloration/total number of strains, positive at 24 h [6, 15]: 29/34; Number of strains producing a coloration/total number of strains, positive at 48 h [6, 15]: 33/34; % of strains producing colored or fluorescent colonies ([7]; 80 mg/L, 18 h): 0%; % of strains producing colored or fluorescent colonies ([7]; 80 mg/L, 24 h): 0%; % of strains producing colored or fluorescent colonies ([7]; 80 mg/L, 48 h): 0%; % of strains producing colored or fluorescent colonies ([7]; 200 mg/L, 18 h): 0%; % of strains producing colored or fluorescent colonies ([7]; 200 mg/L, 24 h): 0%; % of strains producing colored or fluorescent colonies ([7]; 200 mg/L, 48 h): 0%; % of strains producing colored or fluorescent colonies ([9]; 80 mg/L, 18 h): 2%; % of strains producing colored or fluorescent colonies ([9]; 80 mg/L, 24 h): 2%; % of strains producing colored or fluorescent colonies ([9]; 80 mg/L, 48 h): 2%; % of strains producing colored or fluorescent colonies ([9]; 200 mg/L, 18 h): 2%; % of strains producing colored or fluorescent colonies ([9]; 200 mg/L, 24 h): 2%; % of strains producing colored or fluorescent colonies ([9]; 200 mg/L, 48 h): 2%; % of strains producing colored or fluorescent colonies ([10]; 80 mg/L, 18 h): 3%; % of strains producing colored or fluorescent colonies ([10]; 80 mg/L, 24 h): 6%; % of strains producing colored or fluorescent colonies ([10]; 80 mg/L, 48 h): 6%; % of strains producing colored or fluorescent colonies ([10]; 200 mg/L, 18 h): 3%; % of strains producing colored or fluorescent colonies ([10]; 200 mg/L, 24 h): 3%; % of strains producing colored or fluorescent colonies ([10]; 200 mg/L, 48 h): 3%; false positives among the coagulase-negative staphylococci ([10]; Columbia agar, 24 h of incubation, concentration not given): 3%

Reference: patent US20100297692A1, “REACTION MEDIUM FOR DETECTING AND/OR IDENTTIFYING STAPHYLOCCOUS AUREUS” (BIOMERIEUX, priority 2007, published 2010)
